Laboratory results taken from ChEMBL document CHEMBL3832541, “DailyMed|setid=33ddfdb1-b4bc-464d-a186-49c4b156279f | DOXORUBICIN HYDROCHLORIDE- doxorubicin hydrochloride injection, solution|Actavis Pharma, Inc”.
“And” between values parts separate entries of the source, which are not always exact repeats. Identical values can stand only once.

Columns and labels:
Type in all cases: ADME, organism-based
Homo sapiens [1] = assay: Evaluation of pharmacokinetic parameters for Doxorubicin hydrochloride following multiple intravenous administration of Doxorubicin hydrochloride solution to children, adolescents and adults subjects; conditions: in vivo, dose 10 to 75 mg/m2, dosed compound id 8, dosed compound name DOXORUBICIN HYDROCHLORIDE, gender male and female, regimen Multiple dose, tissue Plasma
[2] = (§1) Evaluation of pharmacokinetic parameters for Doxorubicin hydrochloride following single intravenous administration of Doxorubicin hydrochloride solution to patients with various types of tumors.; conditions: human, dosed compound id 8, dosed compound name DOXORUBICIN HYDROCHLORIDE, regimen Single dose, tissue Plasma, read-out: Protein binding (converted)
Homo sapiens [3] = assay: as §1; conditions: in vivo, iv, dosed compound id 8, dosed compound name DOXORUBICIN HYDROCHLORIDE, regimen Single dose, tissue Plasma

- fraction unbound [2]: 0.25
- CL (Homo sapiens [3]; gender female): 433 mL/min/m2
- t1/2-terminal (Homo sapiens [3]; gender female): 35 h
- CL (Homo sapiens [3]; gender male): 1088 mL/min/m2
- t1/2-terminal (Homo sapiens [3]; gender male): 54 h
- t1/2-distribution (Homo sapiens [3]): 5 min
- t1/2-terminal (Homo sapiens [3]): 20 to 48 h
Compound: COc1cccc2c1C(=O)c1c(O)c3c(c(O)c1C2=O)C[C@@](O)(C(=O)CO)C[C@@H]3O[C@H]1C[C@H](N)[C@H](O)[C@H](C)O1.Cl [DOXORUBICIN HYDROCHLORIDE]
- CL (Homo sapiens [1]): 1443 mL/min/m2 and 1540 mL/min/m2 and 813 mL/min/m2
